Patent EP2106791A1, “Glutamine or glutamine-containing dipeptide in a specific dosage for the treatment of inflammation” (Biotempt B.V., priority 2008, dated 2009)
Residues, ends and D or L forms follow the SMILES beside them.

Legend:
[1] = tested on: Hemorrhagic shock; test: Rat hemorrhagic shock study, recovery of mean arterial pressure; type: in vivo, Rats; details: AQ intravenously 0.7 to 70 mg/kg with Ringer's lactate during resuscitation; compared with the LR group
Experimental: (§1) Methods: Rats are randomly assigned to groups. Under isoflurane anesthesia, the femoral artery and vein are cannulated. Hemorrhagic shock is induced by withdrawing blood through the arterial cannula until the mean arterial pressure (MAP) is 25-30 mm Hg and maintained at the level for 30 minutes with further withdrawals. Resuscitation is carried out by giving 21 mL/kg Ringer's lactate (LR) with or without the administration of AQ (intravenously at ranges from 0.7 to 70 mg/kg) and returning the shed blood. Controls are normal (anesthesia only), sham (surgical preparation), and shock (preparation and shock). Rats (n = 80, 10 per group) are killed 30 minutes after completion of resuscitation. Liver samples are collected, and total RNA is isolated for reverse transcription-polymerase chain reaction analysis of mRNA (TNF-a). […] Increased expression of liver mRNA for TNF-alpha is seen after hemorrhagic shock and resuscitation.

[2] = tested on: mouse renal ischemia reperfusion; test: Mice renal failure test (mouse renal ischemia reperfusion), mortality; type: in vivo; details: score = animals died - animals in group
Experimental: Dipeptides are tested and compared with PBS (control) in a double blind animal study for a dipeptide's relative ability to aid recovery in a mouse renal ischemia reperfusion or mouse renal failure test. Under inhalation anesthesia, the left kidney with its artery and vein is isolated and occluded for 25 minutes using a microvascular clamp. During surgery, animals are placed on a heating path to maintain body temperature at 37°C. Five minutes before placing the clamp, and 5 minutes before releasing the clamp, dipeptide, dissolved in 0.1 mL of sterile saline, is administered intravenously. After reperfusion of the left kidney the right kidney is removed. Kidney function is assessed by measuring blood urea nitrogen before clamping, and at 2, 24, and 72 hours after reperfusion, by determining mRNA levels for cytokine expression, and such.
In short, in this test, the mice are anesthetized, and one kidney from each mouse is removed. The other kidney is tied off for 25 minutes, and the ischemia levels in the kidney are allowed to increase. Both before and/or after tying off, GLN-containing dipeptide is administered to 8 to 10 different mice per group (dosages vary per group from for example 0.7, 3, 7, 30 and 70 mg dipeptide / kg body mass intravenously). The mortality of the mice is determined for each oligopeptide as well as for example the BUN or creatinine concentration at two hours, 24 hours and 72 hours. Two dipeptides AQ and LQ are for example tested in a dose-response manner in the mice renal failure test. Dipeptides are tested at dosages of 0.7, 3, 7, 30 and 70 mg/kg body weight given intravenously.

[3] = tested on: TNF-alpha; test: Rat hemorrhagic shock study, liver mRNA by reverse transcription-polymerase chain reaction; type: in vivo, Rats; details: AQ intravenously 0.7 to 70 mg/kg during resuscitation; liver samples 30 minutes after completion of resuscitation
Experimental: as §1

Compound | MAP recovery [1] | Mortality in mice renal failure experiment 24h ([2]; 0.7 mg/kg intravenously) | Mortality in mice renal failure experiment 72h ([2]; 0.7 mg/kg intravenously) | Mortality in mice renal failure experiment 24h ([2]; 3.0 mg/kg intravenously) | Mortality in mice renal failure experiment 72h ([2]; 3.0 mg/kg intravenously) | Mortality in mice renal failure experiment 24h ([2]; 7.0 mg/kg intravenously) | Mortality in mice renal failure experiment 72h ([2]; 7.0 mg/kg intravenously) | Mortality in mice renal failure experiment 24h ([2]; 30.0 mg/kg intravenously) | Mortality in mice renal failure experiment 72h ([2]; 30.0 mg/kg intravenously) | Mortality in mice renal failure experiment 24h ([2]; 70.0 mg/kg intravenously) | Mortality in mice renal failure experiment 72h ([2]; 70.0 mg/kg intravenously) | expression of liver mRNA for TNF-alpha [3]
C[C@H](N)C(=O)N[C@@H](CCC(N)=O)C(=O)O [AQ, alanyl-glutamine] (H-Ala-Gln-OH) | recovers more quickly | 0-9 | 2-9 | 0-10 | 1-9 | 0-10 | 0-9 | 0-8 | 1-10 | 0-9 | 1-9 | reduces mRNA expression for TNF-alpha
CC(C)C[C@H](N)C(=O)N[C@@H](CCC(N)=O)C(=O)O [LQ, leucyl-glutamine] (H-Leu-Gln-OH) |  | 0-9 | 2-9 | 0-10 | 1-9 | 1-10 | 1-10 | 0-10 | 0-9 | 0-8 | 3-9 | 
